Source: patent publication US7208505B2, “β3 adrenergic agonists” (Eli Lilly and Company, priority 2001, dated 2007)

biological target: T1, human β3 adrenergic receptor (Homo sapiens, UniProt P13945); experiment: whole cell receptor coupled c-AMP assay (Emax relative to isoproterenol); format: cell-based; details: % intrinsic activity: maximal response divided by isoproterenol maximal response times 100; transfected CHO cells; average of at least 3 runs
T1 construct: expressed in transfected cells
Description: The genes encoding the human β1-adrenergic receptor (Frielle et al., Proc. Natl. Acad. Sci., 84:7920–7924, 1987), the human β2-adrenergic receptor (Kobika et al., Proc. Natl. Acad. Sci., 84:46–50, 1987, Emorine et al., Proc. Natl. Acad. Sci., 84:6995–6999, 1987) and the human β3 adrenergic receptor (Granneman et al., Molecular Pharmacology, 44(2):264–70, 1993) are individually subcloned into a phd expression vector (Grinnell et al., Bio/Technology, 5:1189–1192, 1987) and transfected into the DXB-11 Chinese hamster ovary (CHO) cell line by calcium phosphate precipitation methodology. The stably transfected cells are grown to 95% confluency in 95% Dulbecco's modified Eagles Medium (DMEM), 5% fetal bovine serum and 0.01% proline. Media is removed and the cells are washed with phosphate buffered (pH 7.4) saline (without magnesium and calcium). Cells are then lifted using an enzyme free cell dissociation solution (Specialty Media, Lavallette, N.J.) and pelleted by centrifugation.
Cells from each of the above cell lines are resuspended and added (20,000/well) to a 96-well plate. Cells are incubated at 37° C. with representative compounds of the invention for 20 minutes in buffer (Hank's balanced salt solution, 10 mM HEPES, 0.1% BSA, 1 mM L-ascorbic acid, 0.2% dimethyl sulfoxide, 1 mM 3-isobutyl-1-methylxanthine, pH 7.4). After halting the incubation with quench buffer (50 mM Na Acetate, 0.25% Triton X-100, pH 5.8), the c-AMP level is quantified by scintillation proximity assay (SPA) using a modification of the commercially available c-AMP kit (Amersham, Arlington Heights, Ill.) with rabbit anti-cAMP antibody (ICN Biomedicals, Aurora, Ohio) for the kit.
Sigmoidal dose response curves, from the whole cell receptor coupled c-AMP assay are fit to a four parameter logistic equation using non linear regression: y=(a−d)/(1+(Dose/c)^b)+d where a and d are responses at zero and maximal dose, b is the slope factor and c is the EC50 as previously described (DeLean et al., Am. J. Physiol., 235, E97-E102, 1978). EC50 is assessed as the concentration producing 50% of the maximum response to each agonist.
Isoproterenol is accepted in the art as a non-selective β3 agonist and is widely used as a comparator in evaluating the activity of compounds. See Trends in Pharm. Sci., 15:3, 1994. The % intrinsic activity (Emax) of representative compounds of the invention is assessed relative to isoproterenol by the compound's maximal response divided by the isoproterenol maximal response times 100.

T1 sequence (P13945 whole entry): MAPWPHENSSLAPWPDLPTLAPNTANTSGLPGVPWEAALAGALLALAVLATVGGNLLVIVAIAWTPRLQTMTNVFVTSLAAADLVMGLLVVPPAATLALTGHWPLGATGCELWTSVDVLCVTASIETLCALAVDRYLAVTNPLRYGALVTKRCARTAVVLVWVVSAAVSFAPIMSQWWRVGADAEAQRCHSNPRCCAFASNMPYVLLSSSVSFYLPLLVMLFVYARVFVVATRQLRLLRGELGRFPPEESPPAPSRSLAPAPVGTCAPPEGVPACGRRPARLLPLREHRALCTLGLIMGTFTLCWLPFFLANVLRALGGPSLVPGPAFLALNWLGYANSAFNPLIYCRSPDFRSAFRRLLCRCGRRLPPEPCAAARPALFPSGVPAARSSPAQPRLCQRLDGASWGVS

In order of falling “Emax (%) ± SEM” value:
1. CC(C)(Cc1c[nH]c2c(NS(C)(=O)=O)cccc12)NC[C@H](O)COc1ccccc1-c1ccc(S(N)(=O)=O)s1 [Example 30]  90.0 ± 6.6%
2. CC(C)(Cc1c[nH]c2c(NS(=O)(=O)c3ccccc3)cccc12)NC[C@H](O)COc1ccccc1-c1cccs1 [Example 25]  89.6 ± 10.9%
3. CC(C)(Cc1c[nH]c2c(OCC#N)cccc12)NC[C@H](O)COc1ccccc1-c1ncco1.O=C(O)C(F)(F)F [Example 8]  82.2 ± 3.8%
4. CC(C)(Cc1c[nH]c2c(-c3cccc(C(F)(F)F)c3)cccc12)NC[C@H](O)COc1ccccc1-c1cccs1 [Example 37]  82.0 ± 4.3%
5. CC(C)(Cc1c[nH]c2c(NS(C)(=O)=O)cccc12)NC[C@H](O)COc1ccccc1-c1cccs1 [Example 27]  81.0 ± 3.2%
6. CC(C)(Cc1c[nH]c2c(-c3cccc(C(F)(F)F)c3)cccc12)NC[C@H](O)COc1ccccc1-c1ccon1 [Example 38]  78.0 ± 2.8%
7. CC(C)(Cc1c[nH]c2c(OCC#N)cccc12)NC[C@H](O)COc1ccccc1-c1ccc(C#N)s1.O=C(O)C(F)(F)F [Example 12]  77.7 ± 4.6%
8. CC(C)(Cc1c[nH]c2ccccc12)NC[C@H](O)COc1ccccc1-c1ncco1 [Example 33]  75.9 ± 1.9%
9. Cc1ccc(-c2ccccc2OC[C@@H](O)CNC(C)(C)Cc2c[nH]c3c(OCC#N)cccc23)s1.O=C(O)C(F)(F)F [Example 14]  75.2 ± 3.0%
10. CCOC(=O)c1cccc(-c2cccc3c(CC(C)(C)NC[C@H](O)COc4ccccc4-c4cccs4)c[nH]c23)c1 [Example 40]  73.3 ± 4.6%
11. CCOC(=O)c1cccc(-c2cccc3c(CC(C)(C)NC[C@H](O)COc4ccccc4-c4ccon4)c[nH]c23)c1 [Example 41]  73.1 ± 1.0%
12. CC(C)(Cc1c[nH]c2c(-c3cccc(C(F)(F)F)c3)cccc12)NC[C@H](O)COc1ccccc1-n1cccc1 [Example 39]  71.7 ± 3.0%
13. CC(C)(Cc1c[nH]c2c(NS(=O)(=O)c3ccccc3)cccc12)NC[C@H](O)COc1ccccc1-c1ccon1 [Example 26]  70.9 ± 5.4%
14. CC(=O)c1cccc(-c2cccc3c(CC(C)(C)NC[C@H](O)COc4ccccc4-c4ccon4)c[nH]c23)c1 [Example 47]  69.2 ± 2.0%
15. CC(C)(Cc1c[nH]c2ccccc12)NC[C@H](O)COc1ccccc1-c1ccc(C#N)s1.Cl [Example 11]  69.0 ± 2.3%
16. CC(C)(Cc1c[nH]c2c(OCC(N)=O)cccc12)NC[C@H](O)COc1ccccc1-n1cccc1 [Example 3]  68.9 ± 2.6%
17. CC(=O)c1cccc(-c2cccc3c(CC(C)(C)NC[C@H](O)COc4ccccc4-c4cccs4)c[nH]c23)c1 [Example 46]  68.2 ± 2.2%
18. COC(=O)c1ccc(-c2cccc3c(CC(C)(C)NC[C@H](O)COc4ccccc4-c4cccs4)c[nH]c23)cc1 [Example 43]  66.6 ± 3.1%
19. CC(C)(Cc1c[nH]c2c(OCC#N)cccc12)NCC(O)COc1ccccc1-c1ccoc1 (stereo not drawn) [Example 5]  66.0 ± 3.6%
20. Cc1csc(-c2ccccc2OC[C@@H](O)CNC(C)(C)Cc2c[nH]c3c(OCC#N)cccc23)c1.O=C(O)C(F)(F)F [Example 22]  66.0 ± 0.9%
21. CC(C)(Cc1c[nH]c2ccccc12)NC[C@H](O)COc1ccccc1-c1cnco1 [Example 34]  64.5 ± 2.1%
22. CC(C)(Cc1c[nH]c2c(OCC#N)cccc12)NC[C@H](O)COc1ccccc1-n1cccc1 [Example 1]  64.1 ± 4.5%
23. Cc1cc(-c2ccccc2OC[C@@H](O)CNC(C)(C)Cc2c[nH]c3ccccc23)on1 [Example 36]  63.9 ± 1.6%
24. Cc1ccc(-c2ccccc2OC[C@@H](O)CNC(C)(C)Cc2c[nH]c3ccccc23)s1.O=C(O)C(F)(F)F [Example 13]  63.4 ± 0.3%
25. Cc1cc(-c2ccccc2OC[C@@H](O)CNC(C)(C)Cc2c[nH]c3c(OCC#N)cccc23)on1.O=C(O)C(F)(F)F [Example 10]  63.2 ± 5.3%
26. CC(C)(Cc1c[nH]c2ccccc12)NC[C@H](O)COc1ccccc1-c1cocn1 [Example 31]  62.4 ± 2.1%
27. Cc1csc(-c2ccccc2OC[C@@H](O)CNC(C)(C)Cc2c[nH]c3ccccc23)c1.O=C(O)C(F)(F)F [Example 21]  61.3 ± 3.2%
28. CCOC(=O)c1cccc(-c2cccc3c(CC(C)(C)NC[C@H](O)COc4ccccc4-n4cccc4)c[nH]c23)c1 [Example 42]  61.0 ± 4.5%
29. CC(=O)c1ccc(-c2cccc3c(CC(C)(C)NC[C@H](O)COc4ccccc4-c4cccs4)c[nH]c23)cc1 [Example 48]  60.4 ± 6.0%
30. CC(C)(Cc1c[nH]c2c(OCC#N)cccc12)NC[C@H](O)COc1ccccc1-c1cc(C#N)cs1.O=C(O)C(F)(F)F [Example 20]  59.1 ± 3.1%
31. CC(C)(Cc1c[nH]c2ccccc12)NC[C@H](O)COc1ccccc1-n1cccc1 [Example 32]  58.9 ± 1.9%
32. CC(C)(Cc1c[nH]c2c(NS(C)(=O)=O)cccc12)NC[C@H](O)COc1ccccc1-c1ccon1 [Example 28]  58.5 ± 0.5%
33. CC(C)(Cc1c[nH]c2c(OCC#N)cccc12)NC[C@H](O)COc1ccccc1-c1cnco1.O=C(O)C(F)(F)F [Example 7]  58.4 ± 1.7%
34. CC(C)(Cc1c[nH]c2c(OCC#N)cccc12)NC[C@H](O)COc1ccccc1-c1cocn1.O=C(O)C(F)(F)F [Example 6]  55.0 ± 3.4%
35. CC(C)(Cc1c[nH]c2c(OCC#N)cccc12)NC[C@H](O)COc1ccccc1-c1csc(C#N)c1.O=C(O)C(F)(F)F [Example 16]  54.2 ± 2.2%
36. Cc1cc(-c2ccccc2OC[C@@H](O)CNC(C)(C)Cc2c[nH]c3c(OCC#N)cccc23)cs1.O=C(O)C(F)(F)F [Example 18]  52.3 ± 0.7%
37. CC(C)(Cc1c[nH]c2ccccc12)NC[C@H](O)COc1ccccc1-n1ccc(C#N)c1 [Example 35]  50.3 ± 2.2%
38. CC(C)(Cc1c[nH]c2ccccc12)NC[C@H](O)COc1ccccc1-c1csc(C#N)c1.O=C(O)C(F)(F)F [Example 15]  50.2 ± 7.3%
39. CC(C)(Cc1c[nH]c2ccccc12)NC[C@H](O)COc1ccccc1-c1cc(C#N)cs1.O=C(O)C(F)(F)F [Example 19]  49.1 ± 4.6%
40. Cc1cc(-c2ccccc2OC[C@@H](O)CNC(C)(C)Cc2c[nH]c3ccccc23)cs1.O=C(O)C(F)(F)F [Example 17]  43.1 ± 3.0%
41. COC(=O)c1ccc(-c2cccc3c(CC(C)(C)NC[C@H](O)COc4ccccc4-n4cccc4)c[nH]c23)cc1 [Example 45]  41.9 ± 4.5%
42. COC(=O)c1ccc(-c2cccc3c(CC(C)(C)NC[C@H](O)COc4ccccc4-c4ccon4)c[nH]c23)cc1 [Example 44]  38.5 ± 2.3%
